Experimental data as given in PubChem BioAssay AID248 (DTP/NCI, 2004).
“And” between values parts separate entries of the source, which are not always exact repeats. Identical values can stand only once. Inconclusive results and toxic doses are left out. Rule as the data show it: active = T/C of 150% or more; inactive = T/C below 125%.

Test system: L1210 leukemia ip in BDF1 mice, survival T/C
Assay: NCI In Vivo Anticancer Drug Screen. Data for tumor model L1210 Leukemia (intraperitoneal) in B6D2F1 (BDF1) mice
Conditions: endpoint: mean survival time, higher = longer survival
In short: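 Mice bearing the transplanted tumor received compound or vehicle. Survival of the treated group was divided by that of the vehicle-treated control group to give the ratio.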

[1] = dose: 50.0 mg/kg/injection, schedule: Q01DX009 (ip), vehicle: saline
[2] = dose: 100.0 mg/kg/injection, schedule: Q04DX003 (ip), vehicle: saline
[3] = dose: 100.0 mg/kg/injection, schedule: Q01DX001 (ip), vehicle: carboxymethylcellulose (CMC)
[4] = dose: 200.0 mg/kg/injection, schedule: Q01DX001 (ip), vehicle: carboxymethylcellulose (CMC)
[5] = dose: 400.0 mg/kg/injection, schedule: Q01DX001 (ip), vehicle: carboxymethylcellulose (CMC)
[6] = dose: 100.0 mg/kg/injection, schedule: Q04DX002 (ip), vehicle: saline
[7] = dose: 200.0 mg/kg/injection, schedule: Q04DX002 (ip), vehicle: saline
[8] = dose: 200.0 mg/kg/injection, schedule: Q04DX003 (ip), vehicle: carboxymethylcellulose (CMC)
[9] = dose: 100.0 mg/kg/injection, schedule: Q01DX009 (ip), vehicle: Klucel (hydroxypropylcellulose) (HPC)
[10] = dose: 100.0 mg/kg/injection, schedule: Q04DX003 (ip), vehicle: Klucel (hydroxypropylcellulose) (HPC)
[11] = dose: 200.0 mg/kg/injection, schedule: Q01DX009 (ip), vehicle: Klucel (hydroxypropylcellulose) (HPC)
[12] = dose: 200.0 mg/kg/injection, schedule: Q04DX003 (ip), vehicle: Klucel (hydroxypropylcellulose) (HPC)
[13] = dose: 400.0 mg/kg/injection, schedule: Q04DX003 (ip), vehicle: Klucel (hydroxypropylcellulose) (HPC)
[14] = dose: 400.0 mg/kg/injection, schedule: Q01DX009 (ip), vehicle: Klucel (hydroxypropylcellulose) (HPC)
[15] = dose: 100.0 mg/kg/injection, schedule: Q04DX003 (ip), vehicle: saline with Tween-80
[16] = dose: 200.0 mg/kg/injection, schedule: Q04DX003 (ip), vehicle: saline with Tween-80
[17] = dose: 400.0 mg/kg/injection, schedule: Q04DX003 (ip), vehicle: saline with Tween-80
[18] = dose: 200.0 mg/kg/injection, schedule: Q04DX003 (ip), vehicle: saline
[19] = dose: 400.0 mg/kg/injection, schedule: Q04DX003 (ip), vehicle: saline
[20] = dose: 50.0 mg/kg/injection, schedule: Q01DX001 (ip), vehicle: saline
[21] = dose: 100.0 mg/kg/injection, schedule: Q01DX001 (ip), vehicle: saline
[22] = dose: 200.0 mg/kg/injection, schedule: Q01DX001 (ip), vehicle: saline
[23] = dose: 400.0 mg/kg/injection, schedule: Q01DX001 (ip), vehicle: saline

Measured: T/C

COc1ccc(C(=O)NC[n+]2ccccc2)cc1
inactive: dose: 25.0 mg/kg/injection, schedule: Q01DX009 (ip), vehicle: saline 93 % of control | dose: 25.0 mg/kg/injection, schedule: Q04DX003 (ip), vehicle: saline 86 % of control | [1] 98 % of control | dose: 50.0 mg/kg/injection, schedule: Q04DX003 (ip), vehicle: saline 93 % of control | [2] 99 % of control

CCCCC(=O)N/N=C/c1ccc(Cl)c(Cl)c1
inactive: [3] 88 % of control | [4] 110 % of control | [5] 91 % of control

COc1ccc(COC(=O)Oc2ccc(C)cc2)cc1
inactive: [6] 113 % of control | [7] 109 % of control | dose: 400.0 mg/kg/injection, schedule: Q04DX002 (ip), vehicle: saline 98 % of control

CCn1c(=O)n(C)c(=O)n1C(=O)c1ccccc1
inactive: dose: 100.0 mg/kg/injection, schedule: Q04DX003 (ip), vehicle: carboxymethylcellulose (CMC) 102 % of control | [8] 104 % of control | dose: 400.0 mg/kg/injection, schedule: Q04DX003 (ip), vehicle: carboxymethylcellulose (CMC) 109 % of control

O=C(NC(=O)C(Cl)Cl)Nc1cccc2c1-c1ccccc1C2
inactive: dose: 100.0 mg/kg/injection, schedule: Q01DX001 (ip), vehicle: Klucel (hydroxypropylcellulose) (HPC) 94 % of control | [9] 108 % of control | [10] 88 % of control | dose: 200.0 mg/kg/injection, schedule: Q01DX001 (ip), vehicle: Klucel (hydroxypropylcellulose) (HPC) 97 % of control | [11] 100 % of control | [12] 92 % of control | dose: 400.0 mg/kg/injection, schedule: Q01DX001 (ip), vehicle: Klucel (hydroxypropylcellulose) (HPC) 92 % of control | [13] 93 % of control

CP(=S)(c1ccccc1)P(C)(=S)c1ccccc1 (stereo unspecified)
inactive: [9] 99 % of control | [10] 98 % of control | [11] 103 % of control | [12] 101 % of control | [14] 94 % of control | [13] 98 % of control

Nc1ccc(-c2ccc3ccccc3n2)cc1
inactive: dose: 12.0 mg/kg/injection, schedule: Q01DX009 (ip), vehicle: Klucel (hydroxypropylcellulose) (HPC) 92 % of control | dose: 25.0 mg/kg/injection, schedule: Q01DX009 (ip), vehicle: Klucel (hydroxypropylcellulose) (HPC) 94 % of control | [10] 112 % of control | [12] 103 % of control

CCN(C(=O)c1ccc(C(=O)N(CC)c2ccccc2)cc1)c1ccccc1
inactive: [15] 96 % of control | [16] 91 % of control | [17] 91 % of control

NNc1c2ccccc2nc2ccccc12
inactive: dose: 0.5 mg/kg/injection, schedule: Q04DX003 (ip), vehicle: Klucel (hydroxypropylcellulose) (HPC) 103 % of control | dose: 1.0 mg/kg/injection, schedule: Q04DX003 (ip), vehicle: Klucel (hydroxypropylcellulose) (HPC) 100 % of control | dose: 2.0 mg/kg/injection, schedule: Q04DX003 (ip), vehicle: Klucel (hydroxypropylcellulose) (HPC) 95 % of control

O=S(=O)(O)C(I)(I)S(=O)(=O)O
inactive: [2] 99 % of control | [18] 100 % of control | [19] 95 % of control

CC(C)c1cccc(OC(=O)N(C)[Si](C)(C)C)c1
inactive: dose: 5.0 mg/kg/injection, schedule: Q01DX001 (ip), vehicle: saline 105 % of control | dose: 10.0 mg/kg/injection, schedule: Q01DX001 (ip), vehicle: saline 97 % of control | dose: 20.0 mg/kg/injection, schedule: Q01DX001 (ip), vehicle: saline 101 % of control | dose: 40.0 mg/kg/injection, schedule: Q01DX001 (ip), vehicle: saline 101 % of control

O=P(Oc1ccccc1)(N1CCCCC1)N1CCCCC1
inactive: dose: 25.0 mg/kg/injection, schedule: Q01DX001 (ip), vehicle: other 96 % of control | dose: 25.0 mg/kg/injection, schedule: Q01DX009 (ip), vehicle: carboxymethylcellulose (CMC) 97 % of control and 101 % of control | dose: 25.0 mg/kg/injection, schedule: Q04DX003 (ip), vehicle: other 97 % of control | dose: 50.0 mg/kg/injection, schedule: Q01DX001 (ip), vehicle: other 91 % of control | dose: 50.0 mg/kg/injection, schedule: Q04DX003 (ip), vehicle: other 108 % of control | dose: 100.0 mg/kg/injection, schedule: Q01DX001 (ip), vehicle: other 106 % of control | dose: 100.0 mg/kg/injection, schedule: Q04DX002 (ip), vehicle: carboxymethylcellulose (CMC) 95 % of control and 100 % of control | dose: 100.0 mg/kg/injection, schedule: Q04DX003 (ip), vehicle: other 93 % of control | dose: 200.0 mg/kg/injection, schedule: Q04DX002 (ip), vehicle: carboxymethylcellulose (CMC) 104 % of control and 106 % of control | [8] 92 % of control

O=C(c1ccccc1)c1ccc(Cl)c([N+](=O)[O-])c1
inactive: [20] 103 % of control | [21] 100 % of control | [22] 91 % of control | [23] 97 % of control

O=C(O)/C=C/c1ccccc1Cl
inactive: dose: 25.0 mg/kg/injection, schedule: Q04DX003 (ip), vehicle: Klucel (hydroxypropylcellulose) (HPC) 94 % of control | dose: 50.0 mg/kg/injection, schedule: Q04DX003 (ip), vehicle: Klucel (hydroxypropylcellulose) (HPC) 103 % of control | [10] 96 % of control

O=c1nccc[nH]1
inactive: [2] 97 % of control | [18] 97 % of control

Cc1ccc(C2NC(=O)c3ccccc3N2)s1 (stereo unspecified)
inactive: dose: 50.0 mg/kg/injection, schedule: Q01DX009 (ip), vehicle: Klucel (hydroxypropylcellulose) (HPC) 107 % of control and 92 % of control | [9] 98 % of control and 105 % of control | dose: 150.0 mg/kg/injection, schedule: Q01DX009 (ip), vehicle: Klucel (hydroxypropylcellulose) (HPC) 102 % of control | [11] 108 % of control | [14] 87 % of control

CCN(CC)CC(C)OC(=O)c1ccc(N)cc1 (stereo unspecified)
inactive: [2] 103 % of control | [18] 101 % of control

COc1ccc(CCc2ccc(OC)cc2)cc1
inactive: dose: 25.0 mg/kg/injection, schedule: Q04DX002 (ip), vehicle: saline 106 % of control | dose: 50.0 mg/kg/injection, schedule: Q04DX002 (ip), vehicle: saline 117 % of control | [6] 109 % of control

CCN(CC)Cc1ccc([N+](=O)[O-])cc1
inactive: [6] 110 % of control | [7] 104 % of control

COc1cc2c(cc1O)C(=O)CCC=C2
inactive: dose: 50.0 mg/kg/injection, schedule: Q01DX009 (ip), vehicle: other 102 % of control | dose: 100.0 mg/kg/injection, schedule: Q01DX009 (ip), vehicle: other 98 % of control | dose: 200.0 mg/kg/injection, schedule: Q01DX009 (ip), vehicle: other 94 % of control

CCNCC(=O)Nc1ccccc1C(=O)OCC
inactive: dose: 222.0 mg/kg/injection, schedule: Q01DX Z (ip), vehicle: saline 113 % of control | dose: 333.0 mg/kg/injection, schedule: Q01DX Z (ip), vehicle: saline 102 % of control

Cc1n[nH]c(=S)[nH]c1=O
inactive: [20] 100 % of control | [21] 100 % of control | [22] 100 % of control | [23] 94 % of control

c1ccc(P2(c3ccccc3)=NP(c3ccccc3)(c3ccccc3)=NP(c3ccccc3)(c3ccccc3)=N2)cc1
inactive: [1] 89 % of control | dose: 100.0 mg/kg/injection, schedule: Q01DX009 (ip), vehicle: saline 86 % of control | dose: 200.0 mg/kg/injection, schedule: Q01DX009 (ip), vehicle: saline 88 % of control

O=C(O)COc1cc(Cl)c(Cl)cc1Cl
inactive: dose: 50.0 mg/kg/injection, schedule: Q01DX001 (ip), vehicle: carboxymethylcellulose (CMC) 102 % of control | [3] 106 % of control | [15] 100 % of control | [4] 112 % of control | [16] 103 % of control | [5] 108 % of control | [17] 100 % of control

Cc1nnnn1C
inactive: [21] 95 % of control | [2] 105 % of control | [22] 108 % of control | [18] 107 % of control | [23] 97 % of control | [19] 88 % of control
